What was measured:
blackgrass = assay: Test A postemergence; format: in vivo, Alopecurus myosuroides; settings: for Plant response rating, Blackgrass: 31 g ai/ha, 0 to 100 scale, 0 no effect, 100 complete control; for Blackgrass plant response rating: 125 g ai/ha, 0 to 100 scale where 0 is no effect and 100 is complete control
How it was run: (§1)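 Visual 0–100 rating (100 = complete control) taken about 10 d post-treatment relative to untreated checks. Preemergence: directed soil spray on sown loam/sand pots. Postemergence: seedlings 2–10 cm, 1–2 leaf. Non-phytotoxic solvent formulation with surfactant.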

sedge, umbrella = assay: Test B flooded paddy test; format: in vivo, Cyperus difformis; settings: Flood, 250 g ai/ha; 0 to 100 scale where 0 is no effect and 100 is complete control
How it was run: (§2)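 Plants at 2-leaf stage; pots flooded to 3 cm above soil and compound applied directly into paddy water, depth held throughout. After 13 to 15 days in greenhouse, visual rating versus controls on 0 (no effect) to 100 (complete control) scale.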

Italian ryegrass [1] = assay: Test A postemergence; format: in vivo, Lolium multiflorum; settings: for Plant response rating, Ryegrass, Italian: 31 g ai/ha, 0 to 100 scale, 0 no effect, 100 complete control; for Ryegrass, Italian plant response rating: 125 g ai/ha, 0 to 100 scale where 0 is no effect and 100 is complete control
How it was run: as §1

pigweed [2] = assay: Test A postemergence; format: in vivo, Amaranthus retroflexus; settings: for Plant response rating, Pigweed: 31 g ai/ha, 0 to 100 scale, 0 no effect, 100 complete control; for Pigweed plant response rating: 125 g ai/ha, 0 to 100 scale where 0 is no effect and 100 is complete control
How it was run: as §1

Italian ryegrass [3] = assay: Test A preemergence; format: in vivo, Lolium multiflorum; settings: for Ryegrass, Italian plant response rating (0 to 100 scale): 31 g ai/ha; for Plant response rating, Ryegrass, Italian: 125 g ai/ha, 0 to 100 scale where 0 is no effect and 100 is complete control
How it was run: as §1

corn = assay: Test A postemergence; format: in vivo, Zea mays; settings: for Plant response rating, Corn: 31 g ai/ha, 0 to 100 scale, 0 no effect, 100 complete control; for Corn plant response rating: 125 g ai/ha, 0 to 100 scale where 0 is no effect and 100 is complete control
How it was run: as §1

pigweed [4] = assay: Test A preemergence; format: in vivo, Amaranthus retroflexus; settings: for Pigweed plant response rating (0 to 100 scale): 31 g ai/ha; for Plant response rating, Pigweed: 125 g ai/ha, 0 to 100 scale where 0 is no effect and 100 is complete control
How it was run: as §1

galium = assay: Test A postemergence; format: in vivo, Galium aparine; settings: for Plant response rating, Galium: 31 g ai/ha, 0 to 100 scale, 0 no effect, 100 complete control; for Galium plant response rating: 125 g ai/ha, 0 to 100 scale where 0 is no effect and 100 is complete control
How it was run: as §1

kochia [5] = assay: Test A preemergence; format: in vivo, Kochia scoparia; settings: for Kochia plant response rating (0 to 100 scale): 31 g ai/ha; for Plant response rating, Kochia: 125 g ai/ha, 0 to 100 scale where 0 is no effect and 100 is complete control
How it was run: as §1

giant foxtail [6] = assay: Test A postemergence; format: in vivo, Setaria faberii; settings: for Plant response rating, Foxtail, Giant: 31 g ai/ha, 0 to 100 scale, 0 no effect, 100 complete control; for Foxtail, Giant plant response rating: 125 g ai/ha, 0 to 100 scale where 0 is no effect and 100 is complete control
How it was run: as §1

barnyardgrass [7] = assay: Test B flooded paddy test; format: in vivo, Echinochloa crus-galli; settings: Flood, 250 g ai/ha; 0 to 100 scale where 0 is no effect and 100 is complete control
How it was run: as §2

giant foxtail [8] = assay: Test A preemergence; format: in vivo, Setaria faberii; settings: for Foxtail, Giant plant response rating (0 to 100 scale): 31 g ai/ha; for Plant response rating, Foxtail, Giant: 125 g ai/ha, 0 to 100 scale where 0 is no effect and 100 is complete control
How it was run: as §1

wheat = assay: Test A postemergence; format: in vivo, Triticum aestivum; settings: for Plant response rating, Wheat: 31 g ai/ha, 0 to 100 scale, 0 no effect, 100 complete control; for Wheat plant response rating: 125 g ai/ha, 0 to 100 scale where 0 is no effect and 100 is complete control
How it was run: as §1

barnyardgrass [9] = assay: Test A postemergence; format: in vivo, Echinochloa crus-galli; settings: for Plant response rating, Barnyardgrass: 31 g ai/ha, 0 to 100 scale, 0 no effect, 100 complete control; for Barnyardgrass plant response rating: 125 g ai/ha, 0 to 100 scale where 0 is no effect and 100 is complete control
How it was run: as §1

rice = assay: Test B flooded paddy test; format: in vivo, Oryza sativa; settings: Flood, 250 g ai/ha; 0 to 100 scale where 0 is no effect and 100 is complete control
How it was run: as §2

ragweed [10] = assay: Test A postemergence; format: in vivo, Ambrosia elatior; settings: for Plant response rating, Ragweed: 31 g ai/ha, 0 to 100 scale, 0 no effect, 100 complete control; for Ragweed plant response rating: 125 g ai/ha, 0 to 100 scale where 0 is no effect and 100 is complete control
How it was run: as §1

barnyardgrass [11] = assay: Test A preemergence; format: in vivo, Echinochloa crus-galli; settings: for Barnyardgrass plant response rating (0 to 100 scale): 31 g ai/ha; for Plant response rating, Barnyardgrass: 125 g ai/ha, 0 to 100 scale where 0 is no effect and 100 is complete control
How it was run: as §1

kochia [12] = assay: Test A postemergence; format: in vivo, Kochia scoparia; settings: for Plant response rating, Kochia: 31 g ai/ha, 0 to 100 scale, 0 no effect, 100 complete control; for Kochia plant response rating: 125 g ai/ha, 0 to 100 scale where 0 is no effect and 100 is complete control
How it was run: as §1

Heteranthera limosa = assay: Test B flooded paddy test; format: in vivo; settings: Flood, 250 g ai/ha; 0 to 100 scale where 0 is no effect and 100 is complete control
How it was run: as §2

ragweed [13] = assay: Test A preemergence; format: in vivo, Ambrosia elatior; settings: for Ragweed plant response rating (0 to 100 scale): 31 g ai/ha; for Plant response rating, Ragweed: 125 g ai/ha, 0 to 100 scale where 0 is no effect and 100 is complete control
How it was run: as §1

| SMILES | Plant response rating, Blackgrass (blackgrass) | Blackgrass plant response rating (blackgrass) | Plant response rating, Sedge, Umbrella (sedge, umbrella) | Plant response rating, Ryegrass, Italian (Italian ryegrass [1]) | Ryegrass, Italian plant response rating (Italian ryegrass [1]) | Plant response rating, Pigweed (pigweed [2]) | Pigweed plant response rating (pigweed [2]) | Ryegrass, Italian plant response rating (0 to 100 scale) (Italian ryegrass [3]) | Plant response rating, Ryegrass, Italian (Italian ryegrass [3]) | Plant response rating, Corn (corn) | Corn plant response rating (corn) | Pigweed plant response rating (0 to 100 scale) (pigweed [4]) | Plant response rating, Pigweed (pigweed [4]) | Plant response rating, Galium (galium) | Galium plant response rating (galium) | Kochia plant response rating (0 to 100 scale) (kochia [5]) | Plant response rating, Kochia (kochia [5]) | Plant response rating, Foxtail, Giant (giant foxtail [6]) | Foxtail, Giant plant response rating (giant foxtail [6]) | Plant response rating, Barnyardgrass (barnyardgrass [7]) | other results |
| --- | --- | --- | --- | --- | --- | --- | --- | --- | --- | --- | --- | --- | --- | --- | --- | --- | --- | --- | --- | --- | --- |
| COc1cnn(-c2c(F)cccc2Oc2ncc(Cl)cn2)c1 [Compound 121] | 10 | 30 | 0 | 0 | 0 | 10 | 40 | 0 | 0 | 0 | 10 | 60 | 90 | 10 | 30 | 0 | 60 | 0 | 30 | 20 | Foxtail, Giant plant response rating (0 to 100 scale) (giant foxtail [8]): 10; Plant response rating, Foxtail, Giant (giant foxtail [8]): 50; Plant response rating, Wheat (wheat): 0; Wheat plant response rating (wheat): 0; Plant response rating, Barnyardgrass (barnyardgrass [9]): 0; Barnyardgrass plant response rating (barnyardgrass [9]): 20; Plant response rating, Rice (rice): 0; Plant response rating, Ragweed (ragweed [10]): 10; Ragweed plant response rating (ragweed [10]): 40; Barnyardgrass plant response rating (0 to 100 scale) (barnyardgrass [11]): 0; Plant response rating, Barnyardgrass (barnyardgrass [11]): 30; Plant response rating, Kochia (kochia [12]): 20; Kochia plant response rating (kochia [12]): 40; Plant response rating, Ducksalad (Heteranthera limosa): 45; Ragweed plant response rating (0 to 100 scale) (ragweed [13]): 0; Plant response rating, Ragweed (ragweed [13]): 10 |
| FCc1cccc(Oc2ncc(Br)cn2)c1-n1cc(Br)cn1 [Compound 125] | 40 | 80 | 70 | 0 | 10 | 30 | 70 | 0 | 20 | 20 | 50 | 70 | 100 | 20 | 90 | 20 | 50 | 0 | 80 | 0 | Foxtail, Giant plant response rating (0 to 100 scale) (giant foxtail [8]): 20; Plant response rating, Foxtail, Giant (giant foxtail [8]): 100; Plant response rating, Wheat (wheat): 0; Wheat plant response rating (wheat): 20; Plant response rating, Barnyardgrass (barnyardgrass [9]): 0; Barnyardgrass plant response rating (barnyardgrass [9]): 90; Plant response rating, Rice (rice): 0; Plant response rating, Ragweed (ragweed [10]): 0; Ragweed plant response rating (ragweed [10]): 10; Barnyardgrass plant response rating (0 to 100 scale) (barnyardgrass [11]): 10; Plant response rating, Barnyardgrass (barnyardgrass [11]): 80; Plant response rating, Kochia (kochia [12]): 40; Kochia plant response rating (kochia [12]): 40; Plant response rating, Ducksalad (Heteranthera limosa): 70; Ragweed plant response rating (0 to 100 scale) (ragweed [13]): 0; Plant response rating, Ragweed (ragweed [13]): 10 |
| Fc1cnc(Oc2cccc(F)c2-n2cc(OCC(F)(F)F)cn2)nc1 [Compound 126] | 10 | 20 | 20 | 0 | 10 | 50 | 80 | 0 | 0 | 0 | 20 | 80 | 100 | 20 | 60 | 40 | 90 | 10 | 50 | 0 | Foxtail, Giant plant response rating (0 to 100 scale) (giant foxtail [8]): 50; Plant response rating, Foxtail, Giant (giant foxtail [8]): 100; Plant response rating, Wheat (wheat): 0; Wheat plant response rating (wheat): 10; Plant response rating, Barnyardgrass (barnyardgrass [9]): 10; Barnyardgrass plant response rating (barnyardgrass [9]): 40; Plant response rating, Rice (rice): 0; Plant response rating, Ragweed (ragweed [10]): 10; Ragweed plant response rating (ragweed [10]): 50; Barnyardgrass plant response rating (0 to 100 scale) (barnyardgrass [11]): 10; Plant response rating, Barnyardgrass (barnyardgrass [11]): 80; Plant response rating, Kochia (kochia [12]): 40; Kochia plant response rating (kochia [12]): 100; Plant response rating, Ducksalad (Heteranthera limosa): 65; Ragweed plant response rating (0 to 100 scale) (ragweed [13]): 0; Plant response rating, Ragweed (ragweed [13]): 20 |

Source: patent publication US9695155B2, “Herbicidal substituted pyrimidinyloxy benzene compounds” (E. I. DU PONT DE NEMOURS AND COMPANY, priority 2013, dated 2017)
